Assay results published in patent publication US5886007A (priority 1997, dated 1999).
pIC50: −log10 of the molar value. Where two headings read alike, the source gives them in different places.

Tests used:
[1] = biological target: T1, rat brain AChE (Rattus norvegicus, UniProt P37136); assay: biochemical
T1 construct: Rat brain homogenate prepared in 10 ml/g 10 mM Tris, pH 7.4, plus 1% Triton X-100 was used as a source of AChE; from tissue; host or cells: rat brain homogenate (10 mM Tris, pH 7.4, 1% Triton X-100)
T1 sequence (P37136 32-614): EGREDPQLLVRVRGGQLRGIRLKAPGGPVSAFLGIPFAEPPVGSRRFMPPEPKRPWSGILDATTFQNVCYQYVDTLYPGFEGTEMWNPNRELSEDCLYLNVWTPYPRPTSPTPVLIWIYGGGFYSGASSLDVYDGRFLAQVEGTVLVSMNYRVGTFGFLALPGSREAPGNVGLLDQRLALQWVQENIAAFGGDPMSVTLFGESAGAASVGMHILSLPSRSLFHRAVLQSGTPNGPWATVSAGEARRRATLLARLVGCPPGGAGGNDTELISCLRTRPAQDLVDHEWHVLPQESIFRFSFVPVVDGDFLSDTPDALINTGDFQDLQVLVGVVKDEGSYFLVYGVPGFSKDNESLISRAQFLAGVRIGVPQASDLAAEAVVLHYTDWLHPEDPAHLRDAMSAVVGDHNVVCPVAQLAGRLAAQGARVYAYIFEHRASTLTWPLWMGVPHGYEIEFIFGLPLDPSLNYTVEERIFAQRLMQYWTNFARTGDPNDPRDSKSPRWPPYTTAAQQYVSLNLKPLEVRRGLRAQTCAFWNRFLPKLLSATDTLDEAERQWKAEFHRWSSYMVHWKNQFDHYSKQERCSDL

[2] = biological target: T2, rat serum BChE (Rattus norvegicus, UniProt Q9JKC1); assay: biochemical
T2 construct: rat serum was the source of BChE; from tissue; host or cells: rat serum
T2 sequence (Q9JKC1 24-597): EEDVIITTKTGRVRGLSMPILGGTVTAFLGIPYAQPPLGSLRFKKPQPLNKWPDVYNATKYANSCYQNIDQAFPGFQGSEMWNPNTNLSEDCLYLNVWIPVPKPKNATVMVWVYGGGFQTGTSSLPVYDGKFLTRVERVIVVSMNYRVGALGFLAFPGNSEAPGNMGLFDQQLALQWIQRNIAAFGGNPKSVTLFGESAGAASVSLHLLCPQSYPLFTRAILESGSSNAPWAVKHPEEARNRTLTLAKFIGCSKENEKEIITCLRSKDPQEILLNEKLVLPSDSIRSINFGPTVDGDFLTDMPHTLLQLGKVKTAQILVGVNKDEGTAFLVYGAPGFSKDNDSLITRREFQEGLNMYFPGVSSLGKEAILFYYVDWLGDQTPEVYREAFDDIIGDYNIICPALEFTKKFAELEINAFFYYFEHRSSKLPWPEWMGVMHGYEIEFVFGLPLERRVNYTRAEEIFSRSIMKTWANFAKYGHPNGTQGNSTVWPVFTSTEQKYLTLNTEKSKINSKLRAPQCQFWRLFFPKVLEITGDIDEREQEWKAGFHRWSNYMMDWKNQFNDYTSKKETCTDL

[3] = current use of THA limited; cited from earlier work

| Compound | pIC50 [1] | Selectivity [1] | pIC50 [2] | also measured |
| --- | --- | --- | --- | --- |
| c1ccc2c(NCCCCCCCNc3c4c(nc5ccccc35)CCCC4)c3c(nc2c1)CCCC3 [1a, 1-7-n-Heptylene-bis-9,9'-amino-1,2,3,4-tetrahydroacridine] |  |  |  | times more potent than THA in inhibiting rat brain AChE [1]: 1000 times |
| c1ccc2c(NCCCCCCCCNc3c4c(nc5ccccc35)CCCC4)c3c(nc2c1)CCCC3 [1b, 1-8-n-Octylene-bis-9,9'-amino-1,2,3,4-tetrahydroacridine] | 9.30 | 432.0 | 6.67 |  |
| c1ccc2c(NCCCCCCCCCCNc3c4c(nc5ccccc35)CCCC4)c3c(nc2c1)CCCC3 [1d, 1-10-n-Decylene-bis-9,9'-amino-1,2,3,4-tetrahydroacridine] | 8.70 | 180.0 | 6.44 |  |
| c1ccc(CCCCNc2c3c(nc4ccccc24)CCCC3)cc1 [2a, (4-Phenyl-butyl)-(1,2,3,4-tetrahydro-acridine-9-yl)-amine] | 5.82 |  |  |  |
| c1ccc(CCCCCNc2c3c(nc4ccccc24)CCCC3)cc1 [2b, (5-Phenyl-pentyl)-(1,2,3,4-tetrahydro-acridine-9-yl)-amine] |  | 0.3 | 6.30 | pIC50 ([1]; pH 7.4, read-out: IC50 rat brain AChE): 5.82 |
| c1ccc(CCCCCCNc2c3c(nc4ccccc24)CCCC3)cc1 [2c, (6-Phenyl-hexyl)-(1,2,3,4-tetrahydro-acridine-9-yl)-amine] | 6.28 | 1.5 | 6.10 |  |
| c1ccc(CCCCCCCNc2c3c(nc4ccccc24)CCCC3)cc1 [2d, (7-Phenyl-heptyl)-(1,2,3,4-tetrahydro-acridine-9-yl)-amine] | 6.44 | 2.8 |  | pIC50 ([2]; read-out: IC50 rat serum BChE): 6.00 |
| c1ccc(CCCCCCCCNc2c3c(nc4ccccc24)CCCC3)cc1 [2e, (8-Phenyl-octyl)-(1,2,3,4-tetrahydro-acridine-9-yl)-amine] | 6.66 | 9.1 | 5.70 | potency of 2e and THA relative to compound 1a against rat brain AChE [1]: weaker; potency ranking within class / chain length dependence of AChE inhibition [1]: the most potent; relative potency of 2e and THA against rat brain AChE [1]: nearly equipotent |
| c1ccc(CCCCCCCCCNc2c3c(nc4ccccc24)CCCC3)cc1 [2f, (9-Phenyl-nonyl)-(1,2,3,4-tetrahydro-acridine-9-yl)-amine] | 5.52 | 3.3 | 5.00 |  |
| c1ccc(CCCCCCCCCCNc2c3c(nc4ccccc24)CCCC3)cc1 [2g, (10-Phenyl-decyl)-(1,2,3,4-tetrahydro-acridine-9-yl)-amine] | 5.52 |  |  |  |
| Nc1c2c(nc3ccccc13)CCCC2 [THA, 9-amino-1,2,3,4-tetrahydroacridine] |  |  |  | hepatoxicity [3]: serious hepatoxicity |
